Results taken from ChEMBL document CHEMBL1909046, “DrugMatrix in vitro pharmacology data”.

Legend:
[1] = target: T1, Alpha-2C adrenergic receptor (Homo sapiens, UniProt P18825); assay: DRUGMATRIX: Adrenergic Alpha-2C radioligand binding (ligand: [3H] MK-912); assay type: cell membranes, Sf9, Membrane; settings: sf9
T1 sequence (P18825 whole entry): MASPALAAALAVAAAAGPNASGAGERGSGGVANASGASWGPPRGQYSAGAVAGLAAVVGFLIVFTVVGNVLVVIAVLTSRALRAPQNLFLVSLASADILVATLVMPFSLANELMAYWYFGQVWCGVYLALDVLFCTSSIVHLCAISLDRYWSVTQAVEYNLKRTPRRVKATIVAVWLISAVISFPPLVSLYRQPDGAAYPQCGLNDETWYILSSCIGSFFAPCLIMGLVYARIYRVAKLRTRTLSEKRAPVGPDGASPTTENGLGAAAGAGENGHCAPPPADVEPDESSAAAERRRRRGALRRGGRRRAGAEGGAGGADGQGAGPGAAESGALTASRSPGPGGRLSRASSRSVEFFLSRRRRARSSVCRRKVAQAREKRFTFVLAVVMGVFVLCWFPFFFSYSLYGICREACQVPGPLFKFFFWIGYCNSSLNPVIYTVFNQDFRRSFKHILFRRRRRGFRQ

[2] = DRUGMATRIX: Calcium Channel Type L, Benzothiazepine radioligand binding (ligand: [3H] Diltiazem); assay type: cell membranes, Rattus norvegicus, Wistar, Brain, Membrane; settings: Not Active = under 50% inhibition at 10 µM
D(4) dopamine receptor = target: T2, D(4) dopamine receptor (Homo sapiens, UniProt P21917); assay: DRUGMATRIX: Dopamine D4.2 radioligand binding (ligand: [3H] Spiperone); assay type: cell membranes, CHO-K1, Membrane; settings: cho-k1; Not Active = under 50% inhibition at 10 µM
T2 sequence (P21917 whole entry): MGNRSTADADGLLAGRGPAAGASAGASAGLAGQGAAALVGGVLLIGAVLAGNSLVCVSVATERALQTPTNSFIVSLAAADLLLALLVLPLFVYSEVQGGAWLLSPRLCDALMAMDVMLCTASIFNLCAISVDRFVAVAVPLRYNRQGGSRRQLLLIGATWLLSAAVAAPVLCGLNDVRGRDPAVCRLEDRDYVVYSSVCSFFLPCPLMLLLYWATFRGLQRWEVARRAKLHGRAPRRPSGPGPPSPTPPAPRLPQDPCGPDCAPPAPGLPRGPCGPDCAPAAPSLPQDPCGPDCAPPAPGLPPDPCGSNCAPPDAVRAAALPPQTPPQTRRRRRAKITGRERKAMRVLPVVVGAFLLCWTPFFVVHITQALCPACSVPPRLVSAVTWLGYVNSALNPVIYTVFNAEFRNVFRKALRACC

[3] = DRUGMATRIX: Phorbol Ester radioligand binding (ligand: [3H] PDBu); assay type: cell membranes, Mus musculus, ICR, Brain, Membrane; settings: Not Active = under 50% inhibition at 10 µM
[4] = target: T3, Receptor-type tyrosine-protein phosphatase C (Homo sapiens, UniProt P08575); set-up: species or system Escherichia coli;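 further: inhibition of CD45 enzyme activity measured using DiFMUP as substrate; in other assays of this panel Not Active means under 50% inhibition at 10 µM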
T3 sequence (P08575 whole entry): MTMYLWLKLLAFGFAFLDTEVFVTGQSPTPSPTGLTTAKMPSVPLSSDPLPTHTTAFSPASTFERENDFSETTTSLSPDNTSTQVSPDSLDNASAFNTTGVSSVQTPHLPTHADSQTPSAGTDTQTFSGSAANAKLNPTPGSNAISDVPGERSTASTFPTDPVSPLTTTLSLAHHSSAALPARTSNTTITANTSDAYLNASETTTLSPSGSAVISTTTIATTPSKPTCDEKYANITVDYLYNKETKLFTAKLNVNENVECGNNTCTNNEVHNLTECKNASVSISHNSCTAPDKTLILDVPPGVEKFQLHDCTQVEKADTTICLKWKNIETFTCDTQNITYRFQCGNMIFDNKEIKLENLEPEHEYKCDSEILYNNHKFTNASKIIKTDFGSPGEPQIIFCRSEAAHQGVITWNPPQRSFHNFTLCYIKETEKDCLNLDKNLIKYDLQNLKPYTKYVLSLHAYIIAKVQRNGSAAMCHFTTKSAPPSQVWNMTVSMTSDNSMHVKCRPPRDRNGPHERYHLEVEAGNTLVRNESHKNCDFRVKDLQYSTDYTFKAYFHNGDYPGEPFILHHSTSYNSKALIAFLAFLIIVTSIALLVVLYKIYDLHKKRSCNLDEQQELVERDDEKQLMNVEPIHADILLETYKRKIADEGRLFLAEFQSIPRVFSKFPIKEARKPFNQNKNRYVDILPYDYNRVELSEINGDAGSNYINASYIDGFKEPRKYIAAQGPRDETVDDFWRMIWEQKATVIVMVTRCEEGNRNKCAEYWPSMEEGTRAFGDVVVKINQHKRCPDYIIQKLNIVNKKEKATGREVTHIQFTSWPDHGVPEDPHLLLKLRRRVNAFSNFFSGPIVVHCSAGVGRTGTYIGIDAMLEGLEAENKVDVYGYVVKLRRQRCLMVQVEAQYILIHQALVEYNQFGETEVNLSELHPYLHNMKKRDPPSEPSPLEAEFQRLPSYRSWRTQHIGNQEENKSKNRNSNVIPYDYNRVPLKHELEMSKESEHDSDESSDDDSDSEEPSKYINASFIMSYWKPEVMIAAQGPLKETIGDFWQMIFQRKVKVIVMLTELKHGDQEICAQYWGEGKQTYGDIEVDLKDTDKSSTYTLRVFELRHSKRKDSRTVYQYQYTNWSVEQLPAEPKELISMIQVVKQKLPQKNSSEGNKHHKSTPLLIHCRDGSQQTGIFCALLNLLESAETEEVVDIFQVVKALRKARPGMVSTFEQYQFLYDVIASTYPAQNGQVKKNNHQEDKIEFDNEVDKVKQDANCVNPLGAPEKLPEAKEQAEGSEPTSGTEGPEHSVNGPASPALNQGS

| Structure (SMILES) | IC50 [1] | IC50 [2] | Ki [2] | IC50 (D(4) dopamine receptor) | IC50 [3] | Ki [3] | IC50 [4] | IC50 ([2]; read-out: IC50) | Ki ([2]; read-out: Ki) |
| --- | --- | --- | --- | --- | --- | --- | --- | --- | --- |
| O=c1c(-c2ccc(O)cc2)coc2cc(O)cc(O)c12 [GENISTEIN] | Not Active | Not Active | Not Active | Not Active | Not Active | Not Active | Not Active |  |  |
| CCC1=C(C)CN(C(=O)NCCc2ccc(S(=O)(=O)NC(=O)N[C@H]3CC[C@H](C)CC3)cc2)C1=O [GLIMEPIRIDE] | Not Active | Not Active | Not Active | Not Active | Not Active | Not Active | Not Active |  |  |
| Nc1cc(-c2ccncc2)c[nH]c1=O [INAMRINONE] | Not Active | Not Active | Not Active | Not Active | Not Active | Not Active | Not Active |  |  |
| CCCCC1=NC2(CCCC2)C(=O)N1Cc1ccc(-c2ccccc2-c2nnn[nH]2)cc1 [IRBESARTAN] | Not Active | Not Active | Not Active | Not Active | Not Active | Not Active | Not Active |  |  |
| CN1CCC(=C2c3ccccc3CC(=O)c3sccc32)CC1 [KETOTIFEN] | Not Active |  |  | Not Active | Not Active | Not Active | Not Active | 2.31 µM | 2.05 µM |
| N[C@@H](Cn1ccc(=O)c(O)c1)C(=O)O [L-MIMOSINE] | Not Active | Not Active | Not Active | Not Active | Not Active | Not Active | Not Active |  |  |
| C[N+](C)(C)C[C@H](O)CC(=O)[O-] [LEVOCARNITINE] | Not Active | Not Active | Not Active | Not Active | Not Active | Not Active | Not Active |  |  |
| C[C@H]1COc2c(N3CCN(C)CC3)c(F)cc3c(=O)c(C(=O)O)cn1c23.C[C@H]1COc2c(N3CCN(C)CC3)c(F)cc3c(=O)c(C(=O)O)cn1c23.O [LEVOFLOXACIN] | Not Active | Not Active | Not Active | Not Active | Not Active | Not Active | Not Active |  |  |
| CCn1cc(C(=O)O)c(=O)c2cc(F)c(N3CCNC(C)C3)c(F)c21 (stereo not drawn) [LOMEFLOXACIN] | Not Active | Not Active | Not Active | Not Active | Not Active | Not Active | Not Active |  |  |
| CN1CCCC(CN2c3ccccc3Sc3ccccc32)C1 (stereo not drawn) [MEPAZINE] | Not Active | Not Active | Not Active | Not Active | Not Active | Not Active | Not Active |  |  |
| Cc1cccc(C)c1NC(=O)C1CCCCN1C (stereo not drawn) [MEPIVACAINE] | Not Active | Not Active | Not Active | Not Active | Not Active | Not Active | Not Active |  |  |
| CN(C)C(=N)NC(=N)N [METFORMIN] | Not Active | Not Active | Not Active | Not Active | Not Active | Not Active | Not Active |  |  |
| CC(C)(C)NCC(O)COc1cccc2c1CC(O)C(O)C2 (stereo not drawn) [NADOLOL] | Not Active | Not Active | Not Active | Not Active | Not Active | Not Active | Not Active |  |  |
| C[C@]12CC[C@H]3[C@@H](CCC4=CC(=O)CC[C@@H]43)[C@@H]1CC[C@@H]2O [NANDROLONE] | Not Active | Not Active | Not Active | Not Active | Not Active | Not Active | Not Active |  |  |
| C[C@@H]1C/C=C/C=C/C=C/C=C/[C@H](O[C@@H]2O[C@H](C)[C@@H](O)[C@H](N)[C@@H]2O)C[C@@H]2O[C@](O)(C[C@@H](O)C[C@H]3O[C@@H]3/C=C/C(=O)O1)C[C@H](O)[C@H]2C(=O)O [NATAMYCIN] | Not Active | Not Active | Not Active | Not Active | Not Active | Not Active | Not Active |  |  |
| CN(C)C(=O)Oc1cccc([N+](C)(C)C)c1.[Br-] [NEOSTIGMINE BROMIDE] | Not Active | Not Active | Not Active | Not Active | Not Active | Not Active | Not Active |  |  |
| NC(=O)c1cccnc1 [NIACINAMIDE] | Not Active | Not Active | Not Active | Not Active | Not Active | Not Active | Not Active |  |  |
| CS(=O)(=O)Nc1ccc([N+](=O)[O-])cc1Oc1ccccc1 [NIMESULIDE] | Not Active | Not Active | Not Active | Not Active | Not Active | Not Active | Not Active |  |  |
| CN1C(=O)CN=C(c2ccccc2)c2cc([N+](=O)[O-])ccc21 [NIMETAZEPAM] | Not Active | Not Active | Not Active | Not Active | Not Active | Not Active | Not Active |  |  |
| COc1ccc2c(c1OC)C(=O)O[C@@H]2[C@H]1c2c(cc3c(c2OC)OCO3)CCN1C [NOSCAPINE] | Not Active | Not Active | Not Active | Not Active | Not Active | Not Active | Not Active |  |  |
| C[C@@H]1O[C@@H](O[C@H]2C[C@@H](O)[C@]3(CO)[C@H]4[C@H](O)C[C@]5(C)[C@@H](C6=CC(=O)OC6)CC[C@]5(O)[C@@H]4CC[C@]3(O)C2)[C@H](O)[C@H](O)[C@H]1O [OUABAIN] | Not Active | Not Active | Not Active | Not Active | Not Active | Not Active | Not Active |  |  |
| NC(=O)N1c2ccccc2CC(=O)c2ccccc21 [OXCARBAZEPINE] | Not Active | Not Active | Not Active | Not Active | Not Active | Not Active | Not Active |  |  |
| COc1ccnc(C[S+]([O-])c2nc3ccc(OC(F)F)cc3[nH]2)c1OC (stereo not drawn) [PANTOPRAZOLE] | Not Active | Not Active | Not Active | Not Active | Not Active | Not Active | Not Active |  |  |
| N=C(N)c1ccc(OCCCCCOc2ccc(C(=N)N)cc2)cc1 [PENTAMIDINE] | Not Active |  |  | Not Active | Not Active | Not Active | Not Active | 2.21 µM | 1.96 µM |
